Data reported in patent publication US20240150377A1, “MODULATORS OF CYSTIC FIBROSIS TRANSMEMBRANE CONDUCTANCE REGULATOR” (VERTEX PHARMACEUTICALS INCORPORATED, priority 2020, published 2024).
pEC50: −log10 of the molar value. Read-outs that look alike come from different tables or passages of the source. One block for each compound: values may come before it.

Assays:
CFTR [1] = molecular target: T1, CFTR (Homo sapiens, UniProt P13569); assay: Membrane potential dye, Enteroid Assay A; assay type: cell-based; settings: for Ent. A Max Activity: chloride transport as % of triple combination control (Enteroid Assay A); for pEC50: human enteroid cells, 18-24 hours, acute 10 μM forskolin and 300 nM ivacaftor, read-out: Ent. A EC50
T1 sequence (P13569 with tags, fused parts or gaps DEL508-508): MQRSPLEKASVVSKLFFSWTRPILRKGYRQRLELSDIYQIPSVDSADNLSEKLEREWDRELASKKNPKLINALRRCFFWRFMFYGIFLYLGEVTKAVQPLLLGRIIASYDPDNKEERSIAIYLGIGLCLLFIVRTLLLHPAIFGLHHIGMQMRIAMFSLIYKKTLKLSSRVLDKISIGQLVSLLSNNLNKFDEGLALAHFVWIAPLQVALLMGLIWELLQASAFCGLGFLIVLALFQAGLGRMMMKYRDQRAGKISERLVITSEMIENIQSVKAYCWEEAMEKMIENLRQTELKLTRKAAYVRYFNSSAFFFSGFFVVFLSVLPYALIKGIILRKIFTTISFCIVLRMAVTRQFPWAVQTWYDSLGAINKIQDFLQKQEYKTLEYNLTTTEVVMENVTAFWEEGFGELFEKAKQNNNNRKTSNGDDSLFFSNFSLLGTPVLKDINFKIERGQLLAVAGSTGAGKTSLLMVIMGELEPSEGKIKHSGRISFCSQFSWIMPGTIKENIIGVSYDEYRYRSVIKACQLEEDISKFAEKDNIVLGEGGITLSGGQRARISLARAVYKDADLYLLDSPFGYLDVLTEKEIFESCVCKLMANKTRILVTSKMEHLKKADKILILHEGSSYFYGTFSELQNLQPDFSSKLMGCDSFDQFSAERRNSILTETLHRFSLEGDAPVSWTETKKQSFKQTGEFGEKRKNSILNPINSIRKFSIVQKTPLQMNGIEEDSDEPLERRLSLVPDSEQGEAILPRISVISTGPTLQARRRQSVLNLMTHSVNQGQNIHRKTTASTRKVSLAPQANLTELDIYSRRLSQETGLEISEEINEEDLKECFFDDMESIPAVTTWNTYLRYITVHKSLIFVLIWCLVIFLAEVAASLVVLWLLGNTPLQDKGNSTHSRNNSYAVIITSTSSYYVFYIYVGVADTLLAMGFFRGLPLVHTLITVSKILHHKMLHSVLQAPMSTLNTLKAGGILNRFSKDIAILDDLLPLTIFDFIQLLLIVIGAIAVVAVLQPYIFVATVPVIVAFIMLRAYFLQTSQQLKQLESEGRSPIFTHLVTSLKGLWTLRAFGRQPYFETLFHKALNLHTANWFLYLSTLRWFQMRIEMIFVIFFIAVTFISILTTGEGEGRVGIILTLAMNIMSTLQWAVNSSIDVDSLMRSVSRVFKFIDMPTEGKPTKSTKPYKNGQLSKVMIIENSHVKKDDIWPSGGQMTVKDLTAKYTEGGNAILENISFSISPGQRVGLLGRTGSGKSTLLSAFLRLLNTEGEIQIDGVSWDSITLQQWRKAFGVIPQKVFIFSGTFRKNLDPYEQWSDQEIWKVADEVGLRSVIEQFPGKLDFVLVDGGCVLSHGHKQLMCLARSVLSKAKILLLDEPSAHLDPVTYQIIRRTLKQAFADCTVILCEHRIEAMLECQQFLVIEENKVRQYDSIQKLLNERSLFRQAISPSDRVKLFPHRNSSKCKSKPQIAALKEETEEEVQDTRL
How it was run: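 Human intestinal enteroids incubated 18-24 h at 37 °C with test compound, then loaded with 20 μM methyl oxonol (with CaCC inhibitors). Chloride transport triggered in chloride-free buffer with 10 μM forskolin, 100 μM IBMX, 300 nM Compound III; fluorescence read 15 min, expressed as % of a triple-combination corrector/potentiator control.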

[2] = amide bond, 13-membered ring
CFTR [3] = molecular target: T1, CFTR; assay: Membrane potential dye, Enteroid Assay B; assay type: cell-based; settings: for Ent. B Max Activity: chloride transport as % of triple combination control (Enteroid Assay B); for pEC50: read-out: Ent. B EC50
How it was run: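 Human intestinal enteroids were treated with compound in maintenance medium for 18-24 h at 37° C, then loaded with methyl oxonol membrane-potential dye (25 min, room temperature). Chloride transport was triggered in chloride-free buffer with 10 μM forskolin, 100 μM IBMX and 300 nM Compound III, fluorescence read 15 min; expressed as % of triple-combination control.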

F508del = molecular target: T2, F508del (Homo sapiens, UniProt P13569, DEL508-508); assay: 3T3 assay: membrane potential optical assay for F508del correction; assay type: cell-based; settings: Table 6, F508del NIH 3T3 cells; for Emax: NIH3T3, compared to lumacaftor in combination with acutely added 300 nM Ivacaftor, read-out: 3T3 Max Activity; for pEC50: 18-24 hours at 37° C., forskolin, acutely added 300 nM Ivacaftor
T2 construct: expressed in transfected cells
T2 sequence (P13569 with tags, fused parts or gaps DEL508-508): as above
How it was run: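 NIH 3T3 mouse fibroblasts stably expressing F508del incubated with corrector compounds across a concentration range for 16-24 hours at 37° C, then loaded with voltage-sensing redistribution dye. Response is FLIPR membrane potential change on forskolin activation with a chloride gradient (chloride-free gluconate bath, HEPES pH 7.4).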

[4] = Table 8, human enteroid cells, 18-24 hours, acute 10 μM forskolin and 300 nM ivacaftor

- Ent. B Max Activity (CFTR [3]; Table 8): +++ (+++ is >60%)
- pEC50 (CFTR [3]; [4]): > 6.00
SMILES: Cc1cccc(C)c1-c1cc2nc(n1)NS(=O)(=O)c1cccc(c1)C(=O)N(Cc1cccnn1)[C@H](CC(C)(C)C)CO2 [Compound 135, (11R)-6-(2,6-dimethylphenyl)-11-(2,2-dimethylpropyl)-12-[(pyridazin-3-yl)methyl]-9-oxa-2λ^6-thia-3,5,12,19-tetraazatricyclo[12.3.1.14,8]nonadeca-1(18),4,6,8(19),14,16-hexaene-2,2,13-trione]
- ring closure, yield after HPLC ([2]; from Cc1cccc(C)c1-c1cc(OC[C@@H](CC(C)(C)C)NCc2cccnn2)nc(NS(=O)(=O)c2cccc(C(=O)O)c2)n1, COMU/DIEA, DMF, 40.7 mM, 16.0 h): 22%

- Ent. B Max Activity (CFTR [3]; Table 8): +++ (+++ is >60%)
- pEC50 (CFTR [3]; [4]): > 6.00
SMILES: Cc1cccc(C)c1-c1cc2nc(n1)NS(=O)(=O)c1cccc(c1)C(=O)N(Cc1ncccn1)[C@H](CC(C)(C)C)CO2 [Compound 113, (11R)-6-(2,6-Dimethylphenyl)-11-(2,2-dimethylpropyl)-12-[(pyrimidin-2-yl)methyl]-9-oxa-2λ^6-thia-3,5,12,19-tetraazatricyclo[12.3.1.14,8]nonadeca-1(17),4(19),5,7,14(18),15-hexaene-2,2,13-trione]
- ring closure, yield after HPLC ([2]; from Cc1cccc(C)c1-c1cc(OC[C@@H](CC(C)(C)C)NCc2ncccn2)nc(NS(=O)(=O)c2cccc(C(=O)O)c2)n1, COMU/DIEA, DMF, 28.1 mM, 25.0 °C, 6.0 h): 33%

- Ent. B Max Activity (%) (CFTR [3]; Table 9): +++ (+++ is >600%)
- pEC50 (CFTR [3]; Table 9): > 6.00
SMILES: COC(=O)c1ccc(CCN2C(=O)c3cccc(c3)S(=O)(=O)Nc3nc(cc(-c4c(C)cccc4C)n3)OC[C@H]2CC(C)(C)C)cc1 [Compound 1081]
- ring closure, yield after HPLC ([2]; from COC(=O)c1ccc(CCN[C@@H](COc2cc(-c3c(C)cccc3C)nc(NS(=O)(=O)c3cccc(C(=O)O)c3)n2)CC(C)(C)C)cc1, HATU/DIEA, DMF, 25.0 °C, 16.0 h, 2 steps): 23%

- Ent. B Max Activity (CFTR [3]; Table 8): +++ (+++ is >60%)
- pEC50 (CFTR [3]; [4]): > 6.00
SMILES: Cc1cccc(C)c1-c1cc2nc(n1)NS(=O)(=O)c1cccc(c1)C(=O)N(Cc1cnc(N)nc1)[C@H](CC(C)(C)C)CO2 [Compound 136, (11R)-12-[(2-Aminopyrimidin-5-yl)methyl]-6-(2,6-dimethylphenyl)-11-(2,2-dimethylpropyl)-9-oxa-2λ^6-thia-3,5,12,19-tetraazatricyclo[12.3.1.14,8]nonadeca-1(18),4,6,8(19),14,16-hexaene-2,2,13-trione]
- ring closure, yield after HPLC ([2]; from Cc1cccc(C)c1-c1cc(OC[C@@H](CC(C)(C)C)NCc2cnc(N)nc2)nc(NS(=O)(=O)c2cccc(C(=O)O)c2)n1, COMU/DIEA, DMF, 29.3 mM, 5.0 h): 33%

- Ent. B Max Activity (%) (CFTR [3]; Table 9): +++ (+++ is >600%)
- pEC50 (CFTR [3]; Table 9): > 6.00
SMILES: Cc1cccc(C)c1-c1cc2nc(n1)NS(=O)(=O)c1cccc(c1)C(=O)N(Cc1ccc(N3CCOCC3)cn1)[C@H](CC(C)(C)C)CO2 [Compound 48, (11R)-6-(2,6-Dimethylphenyl)-11-(2,2-dimethylpropyl)-12-[(5-morpholino-2-pyridyl)methyl]-2,2-dioxo-9-oxa-2λ^6-thia-3,5,12,19-tetrazatricyclo[12.3.1.14,8]nonadeca-1(18),4(19),5,7,14,16-hexaen-13-one]
- ring closure, yield after HPLC ([2]; from Cc1cccc(C)c1-c1cc(OC[C@@H](CC(C)(C)C)NCc2ccc(N3CCOCC3)cn2)nc(NS(=O)(=O)c2cccc(C(=O)O)c2)n1, CDMT/NMM, DMF, 16.9 mM, 25.0 °C, 2.33 h, 2 steps): 22%

The next lines start with the compound.

SMILES: COCCCCN1C(=O)c2cccc(c2)S(=O)(=O)Nc2nc(cc(-c3c(C)cccc3C)n2)OC[C@H]1CC(C)C [Compound 84, (11R)-6-(2,6-dimethylphenyl)-11-isobutyl-12-(4-methoxybutyl)-2,2-dioxo-9-oxa-2λ^6-thia-3,5,12,19-tetrazatricyclo[12.3.1.14,8]nonadeca-1(18),4(19),5,7,14,16-hexaen-13-one]
- Ent. A Max Activity (CFTR [1]; Table 7): +++ (+++ is >60%)
- pEC50 (CFTR [1]; Table 7): > 6.00
- ring closure, yield after HPLC ([2]; from COCCCCN[C@@H](COc1cc(-c2c(C)cccc2C)nc(NS(=O)(=O)c2cccc(C(=O)O)c2)n1)CC(C)C, NaOtBu then HATU, THF, 98.4 mM, 25.0 °C, 1.0 h, 2 steps): 9%
- Ent. B Max Activity (CFTR [3]; Table 7): +++ (+++ is >60%)
- pEC50 (CFTR [3]; Table 7, human enteroid cells, 18-24 hours, acute 10 μM forskolin and 300 nM ivacaftor): > 6.00

SMILES: Cc1cccc(C)c1-c1cc2nc(n1)NS(=O)(=O)c1cccc(c1)C(=O)N(CC1CC3(CCOCC3)C1)[C@H](CC(C)C)CO2 [Compound 40, (11R)-6-(2,6-Dimethylphenyl)-11-isobutyl-12-(7-oxaspiro[3.5]nonan-2-ylmethyl)-2,2-dioxo-9-oxa-2λ^6-thia-3,5,12,19-tetrazatricyclo[12.3.1.14,8]nonadeca-1(18),4(19),5,7,14,16-hexaen-13-one]
- Ent. A Max Activity (CFTR [1]; Table 6): +++ (+++ is >60%)
- pEC50 (CFTR [1]; Table 6): > 6.00
- Emax (F508del): > 60%
- pEC50 (F508del): > 6.00
- ring closure, yield after HPLC ([2]; from Cc1cccc(C)c1-c1cc(OC[C@@H](CC(C)C)NCC2CC3(CCOCC3)C2)nc(NS(=O)(=O)c2cccc(C(=O)O)c2)n1, HATU/DIEA, DMF, 18.8 mM, 1.0 h): 63%

SMILES: Cc1cccc(C)c1-c1cc2nc(n1)NS(=O)(=O)c1cccc(c1)C(=O)N(C)[C@H](CC(C)C)[C@H](CC(C)C)O2 [Compound 2, (10S,11R)-6-(2,6-Dimethylphenyl)-12-methyl-10,11-bis(2-methylpropyl)-9-oxa-2λ^6-thia-3,5,12,19-tetraazatricyclo[12.3.1.14,8]nonadeca-1(18),4(19),5,7,14,16-hexaene-2,2,13-trione]
- Ent. A Max Activity (CFTR [1]; Table 6): +++ (+++ is >60%)
- pEC50 (CFTR [1]; Table 6): > 6.00
- Emax (F508del): > 60%
- pEC50 (F508del): > 6.00
- ring closure, yield after HPLC ([2]; from CN[C@H](CC(C)C)[C@H](CC(C)C)Oc1cc(-c2c(C)cccc2C)nc(NS(=O)(=O)c2cccc(C(=O)O)c2)n1, HATU/TEA, DMF, 18.8 mM, 15.0 h): 47%

SMILES: Cc1cccc(C)c1-c1cc2nc(n1)NS(=O)(=O)c1cccc(c1)C(=O)N(CCC1CCOCC1)C(CCC1(C(F)(F)F)CC1)CO2 (stereo not drawn) [Compound 74, 6-(2,6-dimethylphenyl)-2,2-dioxo-12-(2-tetrahydropyran-4-ylethyl)-11-[2-[1-(trifluoromethyl)cyclopropyl]ethyl]-9-oxa-2λ^6-thia-3,5,12,19-tetrazatricyclo[12.3.1.14,8]nonadeca-1(18),4(19),5,7,14,16-hexaen-13-one]
- Ent. A Max Activity (CFTR [1]; Table 6): +++ (+++ is >60%)
- pEC50 (CFTR [1]; Table 6): > 6.00
- ring closure, yield after HPLC ([2]; from Cc1cccc(C)c1-c1cc(OCC(CCC2(C(F)(F)F)CC2)NCCC2CCOCC2)nc(NS(=O)(=O)c2cccc(C(=O)O)c2)n1, HATU/DIEA, DMF, 24.1 mM, 16.0 h): 23%

SMILES: Cc1cccc(C)c1-c1cc2nc(n1)NS(=O)(=O)c1cccc(c1)C(=O)N(CCC(C)(C)C)CC(c1ccc(C(C)(C)C)cc1)O2 (stereo not drawn) [Compound 14, 10-(4-tert-butylphenyl)-12-(3,3-dimethylbutyl)-6-(2,6-dimethylphenyl)-2,2-dioxo-9-oxa-2λ^6-thia-3,5,12,19-tetrazatricyclo[12.3.1.14,8]nonadeca-1(18),4(19),5,7,14,16-hexaen-13-one]
- Ent. A Max Activity (CFTR [1]; Table 6): ++ (++ is 30-60%)
- pEC50 (CFTR [1]; Table 6): > 6.00
- ring closure, yield after HPLC ([2]; from Cc1cccc(C)c1-c1cc(OC(CNCCC(C)(C)C)c2ccc(C(C)(C)C)cc2)nc(NS(=O)(=O)c2cccc(C(=O)O)c2)n1, HATU/TEA, DMF, 0.42 h, 2 steps): 6%

SMILES: Cc1cccc(C)c1-c1cc2nc(n1)NS(=O)(=O)c1cccc(n1)C(=O)N(Cc1ncccn1)[C@H](CC(C)(C)C)CO2 [Compound 75, (11R)-6-(2,6-dimethylphenyl)-11-(2,2-dimethylpropyl)-12-[(pyrimidin-2-yl)methyl]-9-oxa-2λ^6-thia-3,5,12,18,19-pentaazatricyclo[12.3.1.14,8]nonadeca-1(18),4(19),5,7,14,16-hexaene-2,2,13-trione]
- ring closure, yield after HPLC ([2]; from Cc1cccc(C)c1-c1cc(OC[C@@H](CC(C)(C)C)NCc2ncccn2)nc(NS(=O)(=O)c2cccc(C(=O)O)n2)n1, HATU/DIEA, DMF, 30.5 mM, 25.0 °C, 0.5 h): 46%
- Ent. B Max Activity (CFTR [3]; Table 8): +++ (+++ is >60%)
- pEC50 (CFTR [3]; [4]): > 6.00

SMILES: Cc1cccc(C)c1-c1cc2nc(n1)NS(=O)(=O)c1cccc(c1)C(=O)N(C)CC(c1cccc(C(C)(C)C)c1)O2 (racemic) [Compound 16, 10-(3-tert-butylphenyl)-6-(2,6-dimethylphenyl)-12-methyl-2,2-dioxo-9-oxa-2λ^6-thia-3,5,12,19-tetrazatricyclo[12.3.1.14,8]nonadeca-1(18),4(19),5,7,14,16-hexaen-13-one]
- Ent. A Max Activity (CFTR [1]; Table 7): ++ (++ is 30-60%)
- pEC50 (CFTR [1]; Table 7): > 6.00
- ring closure, yield after HPLC ([2]; from CNCC(Oc1cc(-c2c(C)cccc2C)nc(NS(=O)(=O)c2cccc(C(=O)O)c2)n1)c1cccc(C(C)(C)C)c1, HATU/DIEA, DMF, 32.6 mM, 25.0 °C, 1.0 h, 2 steps): 51%
